For the assay, the system named is LNCaP prostate cancer cell. Kind of assay: LNCaP cell viability (CellTiter-Glo). Conditions: 3 days; for IC50: Homo sapiens, 72 h, LNCaP cell viability, CellTiter-Glo; for viability of LNCaP cells: 3-fold serial dilution from 10 μM, FIG. 4. The class given is cell-based. How it is done: LNCaP cells seeded in 96-well plates were treated with 10 μM GNE-781 or selected bivalent compounds, i.e. P-001, P-002, and P-019, following a 12-point 3-fold serial dilution. Three days after treatment, cell viability was determined using the CellTiter-Glo kit (Promega) following manufacturer's instructions. Cell viability was normalized to the mean values of 3 replicates of untreated cells. Dose-dependent response was analyzed following the least-squares non-linear regression method using the GraphPad Prism 5.0 software.
LNCaP (clone FGC), 22RV1 and other cells were cultured at 37° C. with 5% CO 2 in RPMI 1640 Medium supplemented with 10% fetal bovine serum. Cells were authenticated using the short tandem repeat (STR) assays. Mycoplasma test results were negative.
Cells were seeded at a density of 5000 cells per well in 96-well assay plates and treated with test compounds following a 12-point 3-fold serial dilution. Three days later, cell viability was determined using the CellTiter-Glo assay kit according to the manufactureR's instructions. The dose-response curves were determined and IC50 values were calculated using the GraphPad Prism software following a nonlinear regression (least squares fit) method.

The structures appear in SMILES notation.

A word on the IC50: it is the point on the concentration scale where inhibition reaches its midpoint. Lower therefore signals greater potency in that assay. Molecule `CNC(=O)N1CCc2c(c(N3CCCc4cc(-c5cnn(CC(=O)NCCCCCCCCCC(=O)NC(C(=O)N6C[C@H](O)CC6C(=O)NCc6ccc(-c7scnc7C)cc6)C(C)(C)C)c5)c(C(F)F)cc43)nn2C2CCOCC2)C1` (stereo in doubt) [P-049, 3-(7-(difluoromethyl)-6-(1-(2-((10-(((S)-1-((2S,4R)-4-hydroxy-2-((4-(4-methylthiazol-5-yl)benzyl)carbamoyl)pyrrolidin-1-yl)-3,3-dimethyl-1-oxobutan-2-yl)amino)-10-oxodecyl)amino)-2-oxoethyl)-1H-pyrazol-4-yl)-3,4-dihydroquinolin-1(2H)-yl)-N-methyl-1-(tetrahydro-2H-pyran-4-yl)-1,4,6,7-tetrahydro-5H-pyrazolo[4,3-c]pyridine-5-carboxamide] returned an IC50 (Table 2) of 0.234 µM.

The molecule `CNC(=O)N1CCc2c(c(N3CCCc4cc(-c5cnn(CC(=O)NCCCCCCCCCCC(=O)N[C@H](C(=O)N6CC(O)C[C@H]6C(=O)NCc6ccc(-c7scnc7C)cc6)C(C)(C)C)c5)c(C(F)F)cc43)nn2C2CCOCC2)C1` (stereo in doubt) [P-050, 3-(7-(difluoromethyl)-6-(1-(2-((11-(((S)-1-((2S,4R)-4-hydroxy-2-((4-(4-methylthiazol-5-yl)benzyl)carbamoyl)pyrrolidin-1-yl)-3,3-dimethyl-1-oxobutan-2-yl)amino)-11-oxoundecyl)amino)-2-oxoethyl)-1H-pyrazol-4-yl)-3,4-dihydroquinolin-1(2H)-yl)-N-methyl-1-(tetrahydro-2H-pyran-4-yl)-1,4,6,7-tetrahydro-5H-pyrazolo[4,3-c]pyridine-5-carboxamide] showed a 50% inhibitory concentration (IC50) (Table 2) of 0.111 µM.

As to `CNC(=O)N1CCc2c(c(N3CCCc4cc(-c5cnn(C)c5)c(C(F)F)cc43)nn2C2CCN(C(=O)CNc3ccc4c(c3)C(=O)N(C3CCC(=O)NC3=O)C4=O)CC2)C1` (stereo not drawn) [P-001, 3-(7-(difluoromethyl)-6-(1-methyl-1H-pyrazol-4-yl)-3,4-dihydroquinolin-1(2H)-yl)-1-(1-((2-(2,6-dioxopiperidin-3-yl)-1,3-dioxoisoindolin-5-yl)glycyl)piperidin-4-yl)-N-methyl-1,4,6,7-tetrahydro-5H-pyrazolo[4,3-c]pyridine-5-carboxamide], the “viability of LNCaP cells” value is reported as “dose-dependently suppressed viability of LNCaP cells”.

On to `CNC(=O)N1CCc2c(c(N3CCCc4cc(-c5cnn(C)c5)c(C(F)F)cc43)nn2C2CCN(C(=O)CCNc3ccc4c(c3)C(=O)N(C3CCC(=O)NC3=O)C4=O)CC2)C1` (stereo not drawn) [P-002, 3-(7-(difluoromethyl)-6-(1-methyl-1H-pyrazol-4-yl)-3,4-dihydroquinolin-1(2H)-yl)-1-(1-(3-((2-(2,6-dioxopiperidin-3-yl)-1,3-dioxoisoindolin-5-yl)amino)propanoyl)piperidin-4-yl)-N-methyl-1,4,6,7-tetrahydro-5H-pyrazolo[4,3-c]pyridine-5-carboxamide], for which the “viability of LNCaP cells” value was “dose-dependently suppressed viability of LNCaP cells”.

As for `CNC(=O)N1CCc2c(c(N3CCCc4cc(-c5cnn(CC(=O)NCCCCCNc6ccc7c(c6)C(=O)N(C6CCC(=O)NC6=O)C7=O)c5)c(C(F)F)cc43)nn2C2CCOCC2)C1` (stereo not drawn) [P-019, 3-(7-(difluoromethyl)-6-(1-(2-((5-((2-(2,6-dioxopiperidin-3-yl)-1,3-dioxoisoindolin-5-yl)amino)pentyl)amino)-2-oxoethyl)-1H-pyrazol-4-yl)-3,4-dihydroquinolin-1(2H)-yl)-N-methyl-1-(tetrahydro-2H-pyran-4-yl)-1,4,6,7-tetrahydro-5H-pyrazolo[4,3-c]pyridine-5-carboxamide], the “viability of LNCaP cells” value is reported as “dose-dependently suppressed viability of LNCaP cells”.

Turning to `CNC(=O)N1CCc2c(c(N3CCCc4cc(-c5cnn(CC(=O)NCCOCCOCCOCCOCCOCCC(=O)N[C@H](C(=O)N6C[C@H](O)C[C@H]6C(=O)NCc6ccc(-c7scnc7C)cc6)C(C)(C)C)c5)c(C(F)F)cc43)nn2C2CCOCC2)C1` [P-082], the IC50 (Table 3) is above 10 µM.

With `CNC(=O)N1CCc2c(c(N3CCCc4cc(-c5cnn(CC(=O)NCCOCCOCC(=O)N[C@H](C(=O)N6C[C@H](O)C[C@H]6C(=O)NCc6ccc(-c7scnc7C)cc6)C(C)(C)C)c5)c(C(F)F)cc43)nn2C2CCOCC2)C1` [P-083, 3-(7-(difluoromethyl)-6-(1-((S)-13-((2S,4R)-4-hydroxy-2-((4-(4-methylthiazol-5-yl)benzyl)carbamoyl)pyrrolidine-1-carbonyl)-14,14-dimethyl-2,11-dioxo-6,9-dioxa-3,12-diazapentadecyl)-1H-pyrazol-4-yl)-3,4-dihydroquinolin-1(2H)-yl)-N-methyl-1-(tetrahydro-2H-pyran-4-yl)-1,4,6,7-tetrahydro-5H-pyrazolo[4,3-c]pyridine-5-carboxamide], the IC50 (Table 3) was above 10 µM.

Consider `CC(=O)N1CCc2c(c(N3CCCc4cc(-c5cnn(C)c5)c(C(F)F)cc43)nn2C2CCN(CCCNC(=O)CNc3cccc4c3C(=O)N(C3CCC(=O)NC3=O)C4=O)CC2)C1` (stereo not drawn) [P-124, N-(3-(4-(5-acetyl-3-(7-(difluoromethyl)-6-(1-methyl-1H-pyrazol-4-yl)-3,4-dihydroquinolin-1(2H)-yl)-4,5,6,7-tetrahydro-1H-pyrazolo[4,3-c]pyridin-1-yl)piperidin-1-yl)propyl)-2-((2-(2,6-dioxopiperidin-3-yl)-1,3-dioxoisoindolin-4-yl)amino)acetamide], for which, for the setting “Table 3”, the IC50 was above 1 µM.

For `CC(=O)N1CCc2c(c(N3CCCc4cc(-c5cnn(C)c5)c(C(F)F)cc43)nn2C2CCN(CCN3CCNC(COc4cccc5c4C(=O)N(C4CCC(=O)NC4=O)C5=O)C3)CC2)C1` (stereo not drawn) [P-197, 4-((4-(2-(4-(5-acetyl-3-(7-(difluoromethyl)-6-(1-methyl-1H-pyrazol-4-yl)-3,4-dihydroquinolin-1(2H)-yl)-4,5,6,7-tetrahydro-1H-pyrazolo[4,3-c]pyridin-1-yl)piperidin-1-yl)ethyl)piperazin-2-yl)methoxy)-2-(2,6-dioxopiperidin-3-yl)isoindoline-1,3-dione], for the setting “Table 4”, the IC50 is above 0.5 µM.

As to `CC(=O)N1CCc2c(c(N3CCCc4cc(-c5cnn(C)c5)c(C(F)F)cc43)nn2C2CCN(CCN3CCOC(CNc4cccc5c4CN(C4CCC(=O)NC4=O)C5=O)C3)CC2)C1` (stereo not drawn) [P-199, 3-(4-(((4-(2-(4-(5-acetyl-3-(7-(difluoromethyl)-6-(1-methyl-1H-pyrazol-4-yl)-3,4-dihydroquinolin-1(2H)-yl)-4,5,6,7-tetrahydro-1H-pyrazolo[4,3-c]pyridin-1-yl)piperidin-1-yl)ethyl)morpholin-2-yl)methyl)amino)-1-oxoisoindolin-2-yl)piperidine-2,6-dione], the concentration for half-maximal inhibition (IC50) (Table 4) was above 0.5 µM.

Turning to `CC(=O)N1CCc2c(c(N3CCCc4cc(-c5cnn(C)c5)c(C(F)F)cc43)nn2C2CCN(C(=O)CCN3CCC(COc4ccc5c(c4)n(C)c(=O)n5C4CCC(=O)NC4=O)CC3)CC2)C1` (stereo not drawn) [P-203, 3-(5-((1-(3-(4-(5-acetyl-3-(7-(difluoromethyl)-6-(1-methyl-1H-pyrazol-4-yl)-3,4-dihydroquinolin-1(2H)-yl)-4,5,6,7-tetrahydro-1H-pyrazolo[4,3-c]pyridin-1-yl)piperidin-1-yl)-3-oxopropyl)piperidin-4-yl)methoxy)-3-methyl-2-oxo-2,3-dihydro-1H-benzo[d]imidazol-1-yl)piperidine-2,6-dione], the half-maximal inhibitory concentration (IC50) (Table 4) was above 0.5 µM.

Turning to `CC(=O)N1CCc2c(c(N3CCCc4cc(-c5cnn(C)c5)c(C(F)F)cc43)nn2C2CCN(C(=O)CCCN3CCC(Cn4c(=O)n(C5CCC(=O)NC5=O)c5ccccc54)CC3)CC2)C1` (stereo not drawn) [P-204, 3-(3-((1-(4-(4-(5-acetyl-3-(7-(difluoromethyl)-6-(1-methyl-1H-pyrazol-4-yl)-3,4-dihydroquinolin-1(2H)-yl)-4,5,6,7-tetrahydro-1H-pyrazolo[4,3-c]pyridin-1-yl)piperidin-1-yl)-4-oxobutyl)piperidin-4-yl)methyl)-2-oxo-2,3-dihydro-1H-benzo[d]imidazol-1-yl)piperidine-2,6-dione], the IC50 (Table 4) was above 0.5 µM.

`CC(=O)N1CCc2c(c(N3CCCc4cc(-c5cnn(C)c5)c(C(F)F)cc43)nn2C2CCN(C(=O)CCCN3CCC(COc4ccc5c(c4)n(C)c(=O)n5C4CCC(=O)NC4=O)CC3)CC2)C1` (stereo not drawn) [P-206] gave an IC50 (Table 4) above 0.5 µM.

`CC(=O)N1CCc2c(c(N3CCCc4cc(-c5cnn(C)c5)c(C(F)F)cc43)nn2C2CCN(C(=O)CCN3CCC(COc4cccc5c4n(C)c(=O)n5C4CCC(=O)NC4=O)CC3)CC2)C1` (stereo not drawn) [P-209, 3-(4-((1-(3-(4-(5-acetyl-3-(7-(difluoromethyl)-6-(1-methyl-1H-pyrazol-4-yl)-3,4-dihydroquinolin-1(2H)-yl)-4,5,6,7-tetrahydro-1H-pyrazolo[4,3-c]pyridin-1-yl)piperidin-1-yl)-3-oxopropyl)piperidin-4-yl)methoxy)-3-methyl-2-oxo-2,3-dihydro-1H-benzo[d]imidazol-1-yl)piperidine-2,6-dione] registered an IC50 (Table 4) above 0.5 µM.

`CC(=O)N1CCc2c(c(N3CCCc4cc(-c5cnn(C)c5)c(C(F)F)cc43)nn2C2CCN(C(=O)CCCN3CCC(COc4cccc5c4n(C)c(=O)n5C4CCC(=O)NC4=O)CC3)CC2)C1` (stereo not drawn) [P-210, 3-(4-((1-(4-(4-(5-Acetyl-3-(7-(difluoromethyl)-6-(1-methyl-1H-pyrazol-4-yl)-3,4-dihydroquinolin-1(2H)-yl)-4,5,6,7-tetrahydro-1H-pyrazolo[4,3-c]pyridin-1-yl)piperidin-1-yl)-4-oxobutyl)piperidin-4-yl)methoxy)-3-methyl-2-oxo-2,3-dihydro-1H-benzo[d]imidazol-1-yl)piperidine-2,6-dione] came in with a half-maximal inhibitory concentration (IC50) (Table 4) of 0.325 µM.

For the origin of these results see patent US20240100170A1, “CYCLIC-AMP RESPONSE ELEMENT BINDING PROTEIN (CBP) AND/OR ADENOVIRAL E1A BINDING PROTEIN OF 300 KDA (P300) DEGRADATION COMPOUNDS AND METHODS OF USE” (CULLGEN (SHANGHAI), INC., priority 2020, published 2024).
